Laboratory results from patent US7067155B2, “Anti-inflammatory humate compositions and methods of use thereof” (TBNI, Inc., priority 2003, dated 2006).

System: carrageenan-induced edema
Test: Carrageenan-induced hind paw edema in rats, humate in chow for 37 days with or without indomethacin (Example 3)
Type: in vivo, rat
Details: indomethacin only, 3 mg/kg subcutaneously 30 min before carrageenan; P<0.05
Source text: Male Sprague Dawley rats weighing approximately 50 g were purchased from Harlan U.S. and housed in wire cages in the animal facility at Mercer University School of Pharmacy. The animals were given a short period of time to acclimate to the new environment and received powdered rat chow from Purina and water ad libitum. At the beginning of the experimental period, the rats were divided into six groups of eight each. Control and indomethacin only groups received only powdered rat chow for the entire length of the experiment. For the four other groups, insoluble granular Menefee Humate® was mixed with the powdered rat chow and placed in feeders. Rats received chow with either 0.1%, 0.5% or 1.0% insoluble, granular Menefee Humate® by weight. After 37 days of receiving humate in their food, the animals weighed approximately 278 g, which in an appropriate size for inducing inflammation. An amount of indomethacin sufficient to achieve 50% inhibition of carrageenan-induced edema (3 mg/kg) was administered to the indomethacin only group and to the 0.1% humate plus indomethacin group. The indomethacin was administered subcutaneously 30 minutes before the administration of carageenan. The rats were then injected in one hind paw with carrageenan (2%). After three hours, the hind paws were measured by mercury displacement.

COc1ccc2c(c1)c(CC(=O)O)c(C)n2C(=O)c1ccc(Cl)cc1 [indomethacin]
inhibition of carrageenan-induced edema: ~50%
